These results are taken from PubChem BioAssay AID489033 (Sanford-Burnham Center for Chemical Genomics, 2010).

Activity calls are given as the source filed them. The rule behind the calls is not given here. Some results are limits rather than exact numbers.

This experiment has as its system 697B B-cell line, NF-kB luciferase reporter luminescence. The experiment in a line: inhibitors of B-cell NF-kB luciferase signal – 697B cells, luminescence, selectivity assay for T-cell antigen receptor NF-kB inhibitors, dose response (AID 489033).

Usually IC50 stands for the midpoint of a concentration-inhibition curve. Take `COc1cc2c(c(OC)c1OC)-c1ccc(OC)c(=O)cc1[C@@H](N(C)CC#CCO)CC2`: the IC50 is > 80 µM (inactive). As for `Cc1cc(C(C)(C)C)cc(C)c1C[n+]1ccc2ccccc2c1`, the IC50 was > 80 µM (inactive). As for `CC(C)(C)c1ccc(C(=O)O/N=C(\N)c2ccccn2)cc1`, the 50% inhibitory concentration (IC50) is 0.88 µM.

`Cc1nn(-c2ccccc2Cl)c(Cl)c1/C=N/Nc1nc2ccccc2s1`: the concentration for half-maximal inhibition (IC50) was less than 0.16 µM. With `Cc1ccc(Nc2nc(-c3c(C)nc4ncccn34)cs2)cc1`, the IC50 was > 80 µM (inactive). Turning to `COc1cc([C@@H]2c3cc4c(cc3[C@H](O)[C@H]3COC(=O)[C@H]23)OCO4)cc(OC)c1OC`, the IC50 was > 80 µM (inactive). For the compound `Oc1ccc2ccccc2c1/C=N/Nc1nnc(-c2ncc[nH]2)c2ccccc12`, the IC50 was > 80 µM (inactive). `Cc1ccc(C(=O)Nc2cnc3ccccc3c2)cc1`: the half-inhibitory concentration (IC50) is 7.31 µM. On to `COc1ccc(-n2cc(-c3ccc(C)cc3)[n+]3c2SCC3)cc1`, for which the IC50 was > 80 µM (inactive). The figure for `COc1cc(C2=NOC(C(=O)NCc3ccc(F)cc3)C2)cc(OC)c1OC` (stereo not given) is > 80 µM (inactive); for `CCCOc1ccc(/C=N/Nc2cc(N3CCOCC3)ncn2)c(O)c1` it is 11 µM; for `Cc1cc(=O)oc2cc(OCC3CC(c4ccccc4Cl)=NO3)ccc12` (stereo not given) it is > 80 µM (inactive). With `O=C(Nc1ccc(S(=O)(=O)N2CCCC2)cc1)c1ccc(CN2CCc3ccccc3C2)cc1`, the IC50 was > 80 µM (inactive).

In the case of `COc1cccc(C2CC(=O)Nc3cc4c(cc32)CCC4)c1` (stereo not given), the IC50 was > 80 µM (inactive). Take `Cc1ccc2c(c1)C=CC(C#N)N2C(=O)c1ccccc1` (stereo not given): the IC50 is > 80 µM (inactive).

In the case of `Cc1ccc(C(=O)O/N=C(\N)c2ccccn2)c(Cl)c1`, the concentration for half-maximal inhibition (IC50) is 0.86 µM. In the case of `O=C(Nc1ccc(S(=O)(=O)Nc2ccccc2)cc1)c1ccc(CN2CCOCC2)cc1` it was 46.1 µM (inactive); in that of `Cc1cccc(NS(=O)(=O)c2ccc(-c3cnc(C4CC4)o3)cc2)c1C`, 36.7 µM (inactive).

Turning to `CCCCCCCCCCCCCCCC[n+]1ccc(/C=N/O)cc1`, the 50% inhibitory concentration (IC50) is 13 µM. For `O=C(Nc1ccc(N2CCCCC2)cc1)c1ccccn1`, the IC50 was 0.41 µM. Take `COc1cc(C(=O)Nc2ccc3c(c2)ncn3C)cc(OC)c1OC`: the IC50 was > 80 µM (inactive). Consider `CCCN(CCC)C1=CC(=[N+]2CCCC2)CC(C)(C)C1`, for which the IC50 is 22.6 µM (inactive). In the case of `O=C(Nc1ccc(N2CCN(C(=O)c3ccc(Cl)cc3)CC2)cc1)c1ccc2c(c1)OCCO2` it was > 80 µM (inactive); in that of `Cc1ccc(NS(=O)(=O)c2ccc(C(=O)NC3CCN(Cc4ccccc4)CC3)cc2)cc1`, 45.5 µM (inactive).

Turning to `CC(C)(C)c1csc(Sc2ccc([N+](=O)[O-])cn2)n1`, the IC50 is 10.2 µM. With `CCn1c2ccccc2c2cc(NC(=O)c3cc(OC)cc(OC)c3)ccc21`, the IC50 was > 80 µM (inactive).

As to `CCCOC(=O)c1[nH]c2c(c1C)C(=O)CC(c1cccs1)C2` (stereo not given), the IC50 is > 80 µM (inactive). Regarding `O=S(=O)(C/C(=C/CO)S(=O)(=O)c1ccccc1)c1ccccc1`, the IC50 was 0.28 µM. Take `CCC(C)(C)c1ccc(OCCCC[n+]2cccc(C)c2C)c(C(C)(C)CC)c1`: the half-inhibitory concentration (IC50) was 16.2 µM. On to `Cn1nc(C(C)(C)C)cc1C(=O)NCc1cc(F)cc2c1OCOC2`, for which the IC50 is > 80 µM (inactive). `COc1cc(C2c3cc4c(cc3C(OC3OC5COC(c6cccs6)OC5C(O)C3O)C3COC(=O)C23)OCO4)cc(OC)c1O` (stereo not given): the half-maximal inhibitory concentration (IC50) was 3.94 µM. For the compound `COC(=O)c1[nH]c2ccc(Br)cc2c1NC(=O)CN1CCN(C2CCCCC2)CC1`, the 50% inhibitory concentration (IC50) was 8.88 µM. The figure for `O=C(Nc1ccc(F)cc1)c1ccc(CN2CCc3ccccc3C2)cc1` is > 80 µM (inactive). In the case of `Cc1cc(-c2ccc(C(C)C)c(S(=O)(=O)N3CCN(c4ccccc4)CC3)c2)on1`, the IC50 is > 80 µM (inactive). With `C/C=C(\C)C(=O)N[C@@H](c1ccccc1)[C@@H](O)C(=O)O[C@H]1C[C@@]2(O)[C@@H](OC(=O)c3ccccc3)C3[C@](C)(C(=O)[C@H](OC(C)=O)C(=C1C)C2(C)C)[C@@H](O)C[C@H]1OC[C@@]31OC(C)=O` (stereo not given in full), the IC50 is > 80 µM (inactive). For the compound `CC(C)c1ccc(/C=N/Nc2ccc(C(=O)O)cc2)cc1`, the IC50 was 10.7 µM.

Consider `CCN(CC)S(=O)(=O)c1ccc(NC(=O)c2ccc(CN3CCOCC3)cc2)cc1`, for which the IC50 was 10.1 µM. On to `CC1=CC(C)(C)N(S(=O)(=O)c2ccc(C)cc2)c2cc(C)ccc21`, for which the IC50 was > 80 µM (inactive). The figure for `Cc1nc(SCC(=O)Nc2nc3ccccc3s2)c(C#N)c(C)c1C` is less than 0.16 µM; for `CCc1ccc(N2C(=O)C(Cl)=C(Nc3ccc(C(=O)N4CCCC4)cc3)C2=O)cc1` it is 2.28 µM. In the case of `CCOc1ccccc1N1CC(O)=C(c2nc3ccccc3s2)C1=N`, the IC50 was 61 µM (inactive). The figure for `CC(C)(C)c1nnc(N/N=C/c2ccccc2O)n(N)c1=O` is 52.8 µM (inactive); for `Cc1ccc(S(=O)(=O)Nc2ccccc2-c2ccccc2)cc1` it is > 80 µM (inactive); for `N#Cc1ccc(-c2cccs2)nc1SCc1cccnc1` it is > 80 µM (inactive). On to `CC(=O)O[C@@]12CO[C@@H]1C[C@@H](O)[C@@]1(C)C(=O)[C@H](O)C3=C(C)[C@@H](OC(=O)[C@H](O)[C@@H](NC(=O)c4ccccc4)c4ccccc4)C[C@@](O)([C@@H](OC(=O)c4ccccc4)C12)C3(C)C` (stereo not given in full), for which the IC50 was > 80 µM (inactive).

`C#Cc1ccc([C@@H]2C=C(C(=O)N3CCN(Cc4ccccc4)CC3)O[C@H](OCCCCO)C2)cc1`: the IC50 was > 80 µM (inactive).

On to `CCSc1nc2ccccc2n1C(=O)/C=C\c1ccc(OC)c(OC)c1`, for which the concentration for half-maximal inhibition (IC50) is 4.67 µM.

Regarding `Cc1cc(C)cc(C(=O)N2CC(=O)Nc3ccccc32)c1`, the IC50 is > 80 µM (inactive). The figure for `COc1cc(Cn2c(-c3nonc3N)nc3ccccc32)ccc1C` is > 80 µM (inactive); for `Cc1cccc(NS(=O)(=O)c2ccc(-c3cnc(C4CC4)o3)cc2)c1` it is > 80 µM (inactive); for `COc1cc(-c2noc(C)c2/C=C/c2cccc([N+](=O)[O-])c2)cc(OC)c1OC` it is > 80 µM (inactive). As for `COC(=O)[C@]12OC[C@]34C([C@@H](O)[C@@H]1O)[C@]1(C)CC(=O)C(O)=C(C)[C@@H]1C[C@H]3OC(=O)[C@H](O)[C@@H]24` (stereo not given in full), the IC50 is 0.23 µM. With `COc1ccc2c(C)nc(Nc3nc(-c4ccccc4)cc(=O)[nH]3)nc2c1`, the IC50 was > 80 µM (inactive). With `Cc1ccc(C[n+]2c(-c3ccc(C)cc3)cc(-c3ccc(C)cc3)cc2-c2ccc(C)cc2)cc1`, the IC50 is 0.29 µM.

Turning to `CCN1C/C(=C/c2ccc(OC)c(O)c2)C(=O)/C(=C/c2ccc(OC)c(O)c2)C1`, the IC50 is 25.2 µM (inactive). Regarding `C=C1C(=O)O[C@H]2C[C@@H](C)[C@@H]3C=CC(=O)[C@@]3(C)C[C@H]12`, the IC50 is 1.25 µM.

As to `CN(Cc1ccccc1)C1=CC(=[N+]2CCCCC2)CC(C)(C)C1`, the IC50 was > 80 µM (inactive). The figure for `COc1ccc(CCNc2nnc(Sc3nnnn3-c3ccccc3)s2)cc1OC` is 18.9 µM; for `CC(C)Nc1ccc(C(CC(N)=O)NC(=O)Cc2ccc(Br)cc2)cc1[N+](=O)[O-]` (stereo not given) it is 37.8 µM (inactive). The figure for `CC1(C)Cc2c(sc(NC(=O)COc3cccc4ccccc34)c2C#N)C(C)(C)N1` is 8.2 µM; for `CCOCCOC(=O)c1[nH]c2c(c1C)C(=O)CC(c1ccccc1)C2` (stereo not given) it is > 80 µM (inactive). Take `Cc1ccc2oc(/N=C(\N)NC(=O)C(C)(C)C)nc2c1`: the concentration for half-maximal inhibition (IC50) is 0.47 µM.

For `c1ccc(-c2noc(-c3ccc4ccccc4c3)n2)nc1`, the IC50 is 0.73 µM. `O=C(COc1ccccc1-c1ccccc1)N/N=C/c1cccc2ccccc12`: the IC50 was > 80 µM (inactive). `CN(C)c1ccc2c(c1)OC(N)=C(C#N)C2c1cccc(F)c1` (stereo not given): the IC50 was > 80 µM (inactive). Turning to `Cc1ccccc1NC1=C/C(=N\S(=O)(=O)c2cccs2)c2ccccc2C1=O`, the IC50 is 6.69 µM.

For `COc1cc(-c2noc(C)c2-c2ccc(N(C)C)nc2)cc(OC)c1OC`, the IC50 is > 80 µM (inactive). Regarding `Cc1ccc(C(=O)c2cc([N+](=O)[O-])ccc2N2CCCCC2)c(C)c1`, the IC50 is > 80 µM (inactive).

`CCOC(=O)c1[nH]c(C)c(C(=O)Nc2cc(Cl)ccc2C)c1C`: the IC50 was > 80 µM (inactive). Take `Cc1ccc(S(=O)(=O)/N=C2\C=C(Nc3ccc(O)cc3)C(=O)c3ccccc32)cc1`: the IC50 was 2.04 µM. `CCOCCOC(=O)c1[nH]c2c(c1C)C(=O)CC(c1cccs1)C2` (stereo not given): the IC50 is > 80 µM (inactive).

Take `COc1ccc(COC(=O)c2cc([N+](=O)[O-])ccc2N2CCOCC2)cc1F`: the IC50 was 37.1 µM (inactive). As to `COc1cc(C2C3=C(Nc4ncnn42)c2ccccc2CC3)cc(OC)c1OC` (stereo not given), the IC50 was > 80 µM (inactive).

Consider `CCn1nc(C)c(CNC(=O)c2ccc(OC3CCN(Cc4ccccn4)CC3)cc2)c1C`, for which the IC50 was > 80 µM (inactive).

`O=C(O)c1ccc(N/N=C/c2ccc3c(c2)OCO3)cc1`: the IC50 is 1.04 µM. Turning to `COc1ccccc1NC(=O)Cn1nnc(C(=O)NCc2cccs2)c1N`, the IC50 is > 80 µM (inactive). For the compound `Clc1ccc(CSc2nncn2-c2ccc3c(c2)OCCO3)cc1`, the IC50 was 70 µM (inactive). For the compound `O=S1(=O)C=C(Sc2nc3cc(Cl)ccc3o2)c2ccccc21`, the IC50 is 0.21 µM. As for `COc1cc(-c2noc(C)c2C#Cc2ccsc2)cc(OC)c1OC`, the IC50 is 77.7 µM (inactive). Turning to `CCOCCCNC(=O)c1cc2c(=O)n3cccc(C)c3nc2n1C`, the IC50 was > 80 µM (inactive). Turning to `CC[n+]1cc(C)ccc1/C=C/c1ccc(N(C)C)cc1`, the IC50 was > 80 µM (inactive). As for `CC1Cc2cc(-c3csc(NC(=O)Cc4cccs4)n3)ccc2N1S(C)(=O)=O` (stereo not given), the 50% inhibitory concentration (IC50) is 13.9 µM. Consider `COc1ccc(C)c(Cn2c(-c3nonc3N)nc3ccccc32)c1`, for which the IC50 was > 80 µM (inactive). With `COc1ccccc1CNS(=O)(=O)c1ccc(-c2cnc(C3CC3)o2)cc1`, the IC50 is > 80 µM (inactive). For `O=c1cc(-c2cccc(F)c2)[nH]c2ccccc12`, the IC50 was > 80 µM (inactive).
